This passage reports IC50 results from patent US20240109917A1 (ACTELION PHARMACEUTICALS LTD, priority 2020, published 2024).

Assay [1] addresses His6-TEV-PDGFRβ (557-1016) (Homo sapiens (Human), UniProt P09619). Put plainly: PDGFRβ HTRF Assay. It is filed as biochemical. The note with it: read-out: PDGFR HTRF IC50. A digest of the protocol:
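HTRF KinEASE-TK readout (665/620 nm ratio) of TK-biotin substrate phosphorylation by His-tagged PDGFRβ kinase domain. Enzyme and inhibitor preincubated 30 min, then ATP/substrate added for 3 h at room temperature before 60 min EDTA quench/detection.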
(In TR-FRET formats the signal depends on donor and acceptor labels being close together.)

The target of assay [2] is Tb-labeled inactive PDGFRβ (Homo sapiens (Human), UniProt P09619). Description: PDGFRβ LanthaScreen Assay. It is filed as binding. The note with it: read-out: PDGFR Lantha IC50.
Sequence of Tb-labeled inactive PDGFRβ (P09619 33-1106): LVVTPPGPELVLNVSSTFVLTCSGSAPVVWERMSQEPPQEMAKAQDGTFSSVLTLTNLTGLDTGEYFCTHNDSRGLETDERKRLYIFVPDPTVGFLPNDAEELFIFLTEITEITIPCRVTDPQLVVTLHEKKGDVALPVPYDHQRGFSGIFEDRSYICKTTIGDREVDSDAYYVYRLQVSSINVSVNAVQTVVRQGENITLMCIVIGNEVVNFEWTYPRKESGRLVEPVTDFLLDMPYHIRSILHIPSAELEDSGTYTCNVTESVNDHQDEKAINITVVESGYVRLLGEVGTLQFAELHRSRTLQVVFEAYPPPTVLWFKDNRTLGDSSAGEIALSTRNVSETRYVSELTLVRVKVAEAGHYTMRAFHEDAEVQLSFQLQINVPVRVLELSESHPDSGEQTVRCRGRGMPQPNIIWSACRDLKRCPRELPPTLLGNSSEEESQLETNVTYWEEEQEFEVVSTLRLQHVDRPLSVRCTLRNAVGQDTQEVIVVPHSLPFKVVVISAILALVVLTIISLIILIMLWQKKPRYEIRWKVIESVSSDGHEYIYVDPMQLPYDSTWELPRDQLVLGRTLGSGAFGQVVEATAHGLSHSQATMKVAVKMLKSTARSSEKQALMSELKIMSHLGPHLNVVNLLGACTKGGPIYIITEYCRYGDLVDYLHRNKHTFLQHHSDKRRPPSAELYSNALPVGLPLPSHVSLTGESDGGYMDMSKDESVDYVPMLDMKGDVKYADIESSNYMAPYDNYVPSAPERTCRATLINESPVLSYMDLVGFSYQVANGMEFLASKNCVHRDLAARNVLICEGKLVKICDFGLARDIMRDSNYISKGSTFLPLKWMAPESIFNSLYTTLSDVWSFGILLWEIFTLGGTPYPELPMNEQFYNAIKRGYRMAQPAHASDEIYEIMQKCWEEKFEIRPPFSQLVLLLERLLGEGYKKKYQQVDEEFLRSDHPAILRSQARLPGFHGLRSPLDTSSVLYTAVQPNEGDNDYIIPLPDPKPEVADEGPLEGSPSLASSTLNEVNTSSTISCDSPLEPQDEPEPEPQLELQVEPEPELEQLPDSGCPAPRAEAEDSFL
Another assay concerns the target PDGFRβ (Rattus norvegicus (Rat), UniProt Q05030). Put plainly: PDGFRβ Cellular Assay (PDGFRb P-Y751 HTRF in A10 cells stimulated with PDGF-BB). The settings on record: read-out: PDGFR Cellular IC50. Type of assay: cell-based. The essentials: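 Phospho-Y751 PDGFRβ was measured by HTRF in lysates of A10 rat cells. Cells received compound for 3 hours before PDGF-BB stimulation (100 ng/mL working stock).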

Sequence of PDGFRβ (Q05030 32-1097): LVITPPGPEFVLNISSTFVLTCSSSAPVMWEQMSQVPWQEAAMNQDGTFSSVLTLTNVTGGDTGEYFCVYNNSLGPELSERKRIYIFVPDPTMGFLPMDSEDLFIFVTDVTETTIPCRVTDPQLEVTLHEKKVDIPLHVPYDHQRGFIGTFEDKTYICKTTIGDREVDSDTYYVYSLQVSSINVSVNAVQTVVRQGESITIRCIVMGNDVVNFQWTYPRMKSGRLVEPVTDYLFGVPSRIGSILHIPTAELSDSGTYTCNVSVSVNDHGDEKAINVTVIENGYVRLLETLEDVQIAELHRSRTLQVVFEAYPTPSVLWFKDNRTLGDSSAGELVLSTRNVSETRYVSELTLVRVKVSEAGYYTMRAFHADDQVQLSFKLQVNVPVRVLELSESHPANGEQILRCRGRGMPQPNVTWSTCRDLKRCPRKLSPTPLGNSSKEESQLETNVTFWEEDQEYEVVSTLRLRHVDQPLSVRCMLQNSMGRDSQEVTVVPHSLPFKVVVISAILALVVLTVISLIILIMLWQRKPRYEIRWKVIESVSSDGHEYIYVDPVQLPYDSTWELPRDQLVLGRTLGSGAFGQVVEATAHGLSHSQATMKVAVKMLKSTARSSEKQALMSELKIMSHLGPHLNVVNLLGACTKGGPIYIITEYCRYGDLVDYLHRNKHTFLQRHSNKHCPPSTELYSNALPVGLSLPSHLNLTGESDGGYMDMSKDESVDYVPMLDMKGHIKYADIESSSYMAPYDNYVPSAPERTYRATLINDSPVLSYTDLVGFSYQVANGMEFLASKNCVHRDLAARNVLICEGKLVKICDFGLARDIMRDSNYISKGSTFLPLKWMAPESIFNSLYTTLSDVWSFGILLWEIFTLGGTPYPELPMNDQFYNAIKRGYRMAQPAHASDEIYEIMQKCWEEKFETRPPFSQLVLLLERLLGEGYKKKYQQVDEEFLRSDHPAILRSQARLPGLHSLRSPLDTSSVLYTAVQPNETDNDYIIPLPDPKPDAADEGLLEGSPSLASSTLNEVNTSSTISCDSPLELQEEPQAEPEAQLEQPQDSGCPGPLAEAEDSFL
Sequence of His6-TEV-PDGFRβ (557-1016) (P09619 557-1016): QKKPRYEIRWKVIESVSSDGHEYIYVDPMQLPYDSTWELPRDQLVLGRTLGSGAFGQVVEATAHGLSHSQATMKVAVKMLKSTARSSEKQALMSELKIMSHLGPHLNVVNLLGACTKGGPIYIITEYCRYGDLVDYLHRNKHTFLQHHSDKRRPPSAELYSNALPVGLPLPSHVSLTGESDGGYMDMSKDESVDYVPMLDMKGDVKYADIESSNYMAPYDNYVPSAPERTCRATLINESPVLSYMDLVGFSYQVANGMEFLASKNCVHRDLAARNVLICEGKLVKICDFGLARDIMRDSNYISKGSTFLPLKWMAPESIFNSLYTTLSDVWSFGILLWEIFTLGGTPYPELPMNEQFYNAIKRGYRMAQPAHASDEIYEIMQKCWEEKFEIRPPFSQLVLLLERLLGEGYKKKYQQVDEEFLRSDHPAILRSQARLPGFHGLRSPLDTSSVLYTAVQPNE

A word on the IC50: it is the concentration that gives 50% inhibition. For `Cc1ncc(C(=O)NCCN2CCCC2)cc1NC(=O)c1cnn2cc(-c3cnn(C)c3)sc12` [Example 219, 2-(1-Methyl-1H-pyrazol-4-yl)-N-(2-methyl-5-((2-(pyrrolidin-1-yl)ethyl)carbamoyl)pyridin-3-yl)pyrazolo[5,1-b]thiazole-7-carboxamide], the IC50 in assay [1] is 0.4 nM; in assay [2], 14 nM; at PDGFRβ, 123 nM.

With `Cc1ncc(C(=O)NCCN2CCCC2)cc1NC(=O)c1cnn2cc(-c3cn(C)nc3C)sc12` [Example 218, 2-(1,3-Dimethyl-1H-pyrazol-4-yl)-N-(2-methyl-5-((2-(pyrrolidin-1-yl)ethyl)carbamoyl)pyridin-3-yl)pyrazolo[5,1-b]thiazole-7-carboxamide], the IC50 amounted to 0.3 nM in assay [1], 3.6 nM in assay [2] and 78.8 nM at PDGFRβ.

As for `Cc1ncc(C(=O)NC[C@H]2CCCN2CCO)cc1NC(=O)c1cnn2cc(-c3cnn(C)c3)sc12` [Example 236, (R)—N-(5-(((1-(2-hydroxyethyl)pyrrolidin-2-yl)methyl)carbamoyl)-2-methylpyridin-3-yl)-2-(1-methyl-1H-pyrazol-4-yl)pyrazolo[5,1-b]thiazole-7-carboxamide], the IC50 in assay [1] was 2.1 nM; in assay [2], 83.6 nM; on PDGFRβ it was 677 nM.

Turning to `Cc1cc(C(=O)NCCN2CC3CCC2CC3)sc1NC(=O)c1cnn2cc(-c3cnn(C)c3)sc12` [Example 199, N-(5-((2-(2-azabicyclo[2.2.2]octan-2-yl)ethyl)carbamoyl)-3-methylthiophen-2-yl)-2-(1-methyl-1H-pyrazol-4-yl)pyrazolo[5,1-b]thiazole-7-carboxamide], the IC50 in assay [1] is 2 nM; in assay [2], 125 nM; at PDGFRβ it was 237 nM.

For `Cc1ncc(NC(=O)CCN2CCCC2(C)C)cc1NC(=O)c1cnn2cc(-c3cccc4c3cnn4C)sc12` [Example 241, N-(5-(3-(2,2-dimethylpyrrolidin-1-yl)propanamido)-2-methylpyridin-3-yl)-2-(1-methyl-1H-indazol-4-yl)pyrazolo[5,1-b]thiazole-7-carboxamide], the IC50 in assay [1] was found to be 0.1 nM; in assay [2], 0.7 nM; on PDGFRβ, 2.7 nM.

Consider `Cc1ncc(C(=O)NCCN(CCO)CC2CCCCC2)cc1NC(=O)c1cnn2cc(-c3cnn(C)c3)sc12` [Example 235, N-(5-((2-((cyclohexylmethyl)(2-hydroxyethyl)amino)ethyl)carbamoyl)-2-methylpyridin-3-yl)-2-(1-methyl-1H-pyrazol-4-yl)pyrazolo[5,1-b]thiazole-7-carboxamide], for which the concentration for half-maximal inhibition (IC50) was determined as 0.5 nM in assay [1], 5.2 nM in assay [2] and 9.5 nM on PDGFRβ.

Regarding `COc1ncccc1-c1cn2ncc(C(=O)Nc3cc(C(=O)NCCN4CCC[C@H]4C)cnc3C)c2s1` [Example 242, (R)-2-(2-methoxypyridin-3-yl)-N-(2-methyl-5-((2-(2-methylpyrrolidin-1-yl)ethyl)carbamoyl)pyridin-3-yl)pyrazolo[5,1-b]thiazole-7-carboxamide], the figures for the IC50 (in assay [1]; in assay [2]; on PDGFRβ) were 0.2 nM, 1.7 nM and 6.1 nM, respectively.

Regarding `Cc1cc(C(=O)NCCN2CCC(CO)CC2)sc1NC(=O)c1cnn2cc(-c3cnn(C)c3)sc12` [Example 193, N-(5-((2-(4-(hydroxymethyl)piperidin-1-yl)ethyl)carbamoyl)-3-methylthiophen-2-yl)-2-(1-methyl-1H-pyrazol-4-yl)pyrazolo[5,1-b]thiazole-7-carboxamide], the figures for the concentration for half-maximal inhibition (IC50) (in assay [1]; in assay [2]; at PDGFRβ) were 321 nM, more than 3000 nM and more than 3000 nM, respectively.

Turning to `Cc1ncc(C(=O)NCCN2CC3CCC2C3)cc1NC(=O)c1cnn2cc(-c3cnn(C)c3C)sc12` (stereo not drawn) [Example 210, N-(5-((2-(2-azabicyclo[2.2.1]heptan-2-yl)ethyl)carbamoyl)-2-methylpyridin-3-yl)-2-(1,5-dimethyl-1H-pyrazol-4-yl)pyrazolo[5,1-b]thiazole-7-carboxamide], the half-maximal inhibitory concentration (IC50) in assay [1] was 0.3 nM; in assay [2], 2.6 nM; on PDGFRβ it was 89.8 nM.
